The results in this text go back to US20140113342A1, “Production of 1,2-Propanediol in Cyanobacteria” (Algenol Biofuels Inc., priority 2012, published 2014).

SMILES strings stand for the structures.

Data set [1] concerns Synechococcus sp. PCC 7002. Kind of data set: Tolerance testing to 1,2-propanediol added to culture medium. As to conditions: one week. Format: cell-based. An excerpt: (§1) The tolerance of cyanobacterial strains PCC 6803 and PCC 7002 to the presence of accumulated 1,2-propanediol in the culture medium was examined by adding a one time bolus of varying amounts of 1,2-propanediol (1%, 2%, 3% and 5%) to exponential phase cultures and comparing the growth of these cultures to a wild type culture with no addition. Growth was monitored by optical density (OD750) for one week. […] PCC 7002.

In data set [2] the test system is Synechocystis sp. PCC 6803. Described as above. The format is cell-based. To be noted: one week.
Source text: as §1

Setting [3] is: 1%, 2%, 3% and 5% 1,2-propanediol.
The mark [4] stands for this setting: up to 3% 1,2-propanediol, one time bolus to exponential phase culture.

Take `CC(O)CO` (centres unmarked) [1,2-propanediol]: the “lethal effect (complete bleaching)” value in data set [1] (setting [3]) and in data set [2] (setting [3]) was “No lethal effect” in each case. For the same molecule, the “growth of cultures (OD750) compared to wild type culture with no addition” value is “no difference in the growth” in data set [1] (setting [4]); “less growth, discoloration and clumping” in data set [2] (5% 1,2-propanediol, one time bolus); “no difference in the growth” in data set [2] (setting [4]).
